US8658661B2, “Oxadiazole inhibitors of leukotriene production” (Boehringer Ingelheim International GmbH, priority 2010, dated 2014)

Tests used:
[1] = target: T1, recombinant human FLAP protein (Homo sapiens, UniProt P20292); experiment: FLAP binding assay (SPA, displacement of [125I]L-691,831); settings: membranes of sf9 cells expressing recombinant human FLAP; [125I]L-691,831 probe; read-out: FLAP binding IC50
T1 construct: made in house; host or cells: Sf9 insect cells (100,000×g membrane pellet used)
T1 sequence (P20292 1-161): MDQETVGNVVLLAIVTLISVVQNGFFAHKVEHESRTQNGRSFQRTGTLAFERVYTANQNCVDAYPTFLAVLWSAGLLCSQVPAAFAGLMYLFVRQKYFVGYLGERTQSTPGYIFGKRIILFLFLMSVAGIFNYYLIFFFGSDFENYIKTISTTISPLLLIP
Procedure, shortened: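 Membranes from sf9 cells expressing human FLAP in pH 7.5 Tris buffer (MgCl2, EDTA, PMSF). Non-specific binding defined with 10 μM cold L-691,831.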

[2] = tested on: synthesis of LTB4 in human whole blood; experiment: Human whole blood assay (inhibition of LTB4 synthesis, calcimycin stimulated); assay type: cell-based; settings: heparinized human whole blood, calcimycin 20 μM, plasma LTB4
Procedure, shortened: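 LTB4 in plasma was quantified by HTRF immunoassay. Before that, compound-treated heparinized whole blood (15 min, 37 °C) received 20 μM final calcimycin for a further 30 min at 37 °C, followed by centrifugation at 1500×g.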

| SMILES | IC50 [1] | IC50 [2] |
| --- | --- | --- |
| CC(C)C(C)(c1ccc(-c2cnc(N)nc2)cc1)c1noc(-c2ccc(N)nc2)n1 (centres unmarked) [Example 151, 5-(4-{2-[5-(6-aminopyridin-3-yl)-1,2,4-oxadiazol-3-yl]-3-methylbutan-2-yl}phenyl)pyrimidin-2-amine] | 2.3 nM | 100 nM |
| Cc1nc(N)ncc1-c1ccc(C(C)(c2noc(-c3cnn(CC(=O)N(C)C)c3)n2)C2CC2)cc1 (centres unmarked) [Example 240, 2-[4-(3-{1-[4-(2-Amino-4-methyl-pyrimidin-5-yl)-phenyl]-1-cyclopropyl-ethyl}-[1,2,4]oxadiazol-5-yl)-pyrazol-1-yl]-N,N-dimethyl-acetamide] | 15 nM | 190 nM |
| CC(C)C(C)(c1ccc(-c2cnc(N)nc2)cc1)c1noc(C(C)(C)CC(=O)O)n1 (centres unmarked) [Example 92, 3-(3-{2-[4-(2-aminopyrimidin-5-yl)phenyl]-3-methylbutan-2-yl}-1,2,4-oxadiazol-5-yl)-3-methylbutanoic acid] | 110 nM | > 5000 nM |
| CC(C)C(C)(c1ccc(-c2cnc(N)nc2)cc1)c1noc(C2(C)CCCCC2)n1 (centres unmarked) [Example 120, 5-(4-{3-methyl-2-[5-(1-methylcyclohexyl)-1,2,4-oxadiazol-3-yl]butan-2-yl}phenyl)pyrimidin-2-amine] | 40 nM | 2100 nM |
| CC(C)C(C)(c1ccc(-c2cnc(N)nc2)cc1)c1noc(CCC(=O)O)n1 (centres unmarked) [Example 94, 3-(3-{2-[4-(2-aminopyrimidin-5-yl)phenyl]-3-methylbutan-2-yl}-1,2,4-oxadiazol-5-yl)propanoic acid] | 350 nM | > 5000 nM |
| Cn1cc(-c2nc(C(C)(c3ccc(-c4cncc(OCc5ccccc5)c4)cc3)C3CC3)no2)cn1 (centres unmarked) [Example 290, 3-Benzyloxy-5-(4-{1-cyclopropyl-1-[5-(1-methyl-1H-pyrazol-4-yl)-[1,2,4]oxadiazol-3-yl]-ethyl}-phenyl)-pyridine] | 22 nM | 2000 nM |
| CC(C)C(C)(c1ccc(-c2cnc(N)nc2)cc1)c1noc(C2CCOCC2)n1 (centres unmarked) [Example 138, 5-(4-{3-methyl-2-[5-(tetrahydro-2H-pyran-4-yl)-1,2,4-oxadiazol-3-yl]butan-2-yl}phenyl)pyrimidin-2-amine] | 15 nM | 760 nM |
| CNC(=O)Cn1cc(-c2nc(C(C)(c3ccc(-c4cnc(N)nc4)cc3)C(C)C)no2)cn1 (centres unmarked) [Example 142, 2-[4-(3-{2-[4-(2-aminopyrimidin-5-yl)phenyl]-3-methylbutan-2-yl}-1,2,4-oxadiazol-5-yl)-1H-pyrazol-1-yl]-N-methylacetamide] | 1.1 nM | 59 nM |
| CC(C)C(C)(c1ccc(-c2cnc(N)nc2)cc1)c1noc(N2CCN(C3CC3)CC2)n1 (centres unmarked) [Example 266, 5-(4-{1-[5-(4-Cyclopropyl-piperazin-1-yl)-[1,2,4]oxadiazol-3-yl]-1,2-dimethyl-propyl}-phenyl)-pyrimidin-2-ylamine] | 16 nM | 170 nM |
| CNC(=O)Cn1cc(-c2nc([C@](C)(c3ccc(-c4cnc(N)nc4)cc3)C3CC3)no2)cn1 [Example 231, 2-[4-(3-{(S)-1-[4-(2-Amino-pyrimidin-5-yl)-phenyl]-1-cyclopropyl-ethyl}-[1,2,4]oxadiazol-5-yl)-pyrazol-1-yl]-N-methyl-acetamide] | 120 nM | 700 nM |
| CC(C)(CO)Nc1cnc(-c2nc(C(C)(C)c3ccc(-c4cnc(N)nc4)cc3)no2)cn1 [Example 74, 2-{[5-(3-{2-[4-(2-aminopyrimidin-5-yl)phenyl]propan-2-yl}-1,2,4-oxadiazol-5-yl)pyrazin-2-yl]amino}-2-methylpropan-1-ol] | 17 nM | 640 nM |
| CC(C)C(c1ccc(-c2cnc(N)nc2)cc1)c1noc(-c2cnn(C)c2)n1 (centres unmarked) [Example 67, 5-(4-{2-methyl-1-[5-(1-methyl-1H-pyrazol-4-yl)-1,2,4-oxadiazol-3-yl]propyl}phenyl)pyrimidin-2-amine] | 6.2 nM | 190 nM |
| CC(c1ccc(-c2cnc(N)nc2)cc1)(c1noc(-c2cn(C3COC3)cn2)n1)C1CC1 (centres unmarked) [Example 207, 5-(4-{1-Cyclopropyl-1-[5-(1-oxetan-3-yl-1H-imidazol-4-yl)-[1,2,4]oxadiazol-3-yl]-ethyl}-phenyl)-pyrimidin-2-ylamine] | 92 nM | 700 nM |
| CC(C)C(C)(c1ccc(-c2cnc(N)nc2)cc1)c1noc(N2CCC(S(C)(=O)=O)CC2)n1 (centres unmarked) [Example 208, 5-(4-{1-[5-(4-Methanesulfonyl-piperidin-1-yl)-[1,2,4]oxadiazol-3-yl]-1,2-dimethyl-propyl}-phenyl)-pyrimidin-2-ylamine] | 13 nM | 250 nM |
| Cn1nccc1-c1nc(C(C)(c2ccc(-c3cnc(N)nc3)cc2)C2CC2)no1 (centres unmarked) [Example 27, 5-(4-{1-cyclopropyl-1-[5-(1-methyl-1H-pyrazol-5-yl)-1,2,4-oxadiazol-3-yl]ethyl}phenyl)pyrimidin-2-amine] | 12 nM | 330 nM |
| CC(C)C(C)(c1ccc(-c2cnc(N)nc2)cc1)c1noc(N2CC(O)C2)n1 (centres unmarked) [Example 200, 1-(3-{1-[4-(2-Amino-pyrimidin-5-yl)-phenyl]-1,2-dimethyl-propyl}-[1,2,4]oxadiazol-5-yl)-azetidin-3-ol] | 15 nM | 250 nM |
| Cn1cc(-c2nc(C(C)(c3ccc(-c4cnc5[nH]ccc5n4)cc3)C3CC3)no2)cn1 (centres unmarked) [Example 273, 2-(4-{1-Cyclopropyl-1-[5-(1-methyl-1H-pyrazol-4-yl)-[1,2,4]oxadiazol-3-yl]-ethyl}-phenyl)-5H-pyrrolo[2,3-b]pyrazine] | 6.1 nM | 56 nM |
| Cn1cc(-c2nc([C@](C)(c3ccc(-c4cnc(N)nc4)cc3)C3CCC3)no2)cn1 [Example 122, 5-(4-{(1S)-1-cyclobutyl-1-[5-(1-methyl-1H-pyrazol-4-yl)-1,2,4-oxadiazol-3-yl]ethyl}phenyl)pyrimidin-2-amine] | 140 nM | 3200 nM |
| Cc1nc(N)ncc1-c1ccc([C@@](C)(c2noc(-c3cnn(CC(=O)N(C)C)c3)n2)C2CC2)cc1 [Example 258, 2-[4-(3-{(S)-1-[4-(2-Amino-4-methyl-pyrimidin-5-yl)-phenyl]-1-cyclopropyl-ethyl}-[1,2,4]oxadiazol-5-yl)-pyrazol-1-yl]-N,N-dimethyl-acetamide] | 430 nM | 2300 nM |
| COc1cncc(-c2nc(C(C)(c3ccc(-c4cnc(N)nc4)cc3)C(C)C)no2)c1 (centres unmarked) [Example 13, 5-(4-{2-[5-(5-methoxypyridin-3-yl)-1,2,4-oxadiazol-3-yl]-3-methylbutan-2-yl}phenyl)pyrimidin-2-amine] | 3.6 nM | 460 nM |
| CC(C)C(C)(c1ccc(-c2cnc(N)nc2)cc1)c1noc(N2CCN(C(=O)N(C)C)CC2)n1 (centres unmarked) [Example 269, 4-(3-{1-[4-(2-Amino-pyrimidin-5-yl)-phenyl]-1,2-dimethyl-propyl}-[1,2,4]oxadiazol-5-yl)-piperazine-1-carboxylic acid dimethylamide] | 24 nM | 230 nM |
| CC(C)C(C)(c1ccc(-c2cnc(N)nc2)cc1)c1noc(-c2ccc(N3CCOCC3)nc2)n1 (centres unmarked) [Example 135, 5-[4-(3-methyl-2-{5-[6-(morpholin-4-yl)pyridin-3-yl]-1,2,4-oxadiazol-3-yl}butan-2-yl)phenyl]pyrimidin-2-amine] | 1.4 nM | 250 nM |
| CC(C)[C@@](C)(c1ccc(-c2cnc(N)nc2)cc1)c1noc(-c2ccn[nH]2)n1 [Example 24, 5-(4-{(2S)-3-methyl-2-[5-(1H-pyrazol-5-yl)-1,2,4-oxadiazol-3-yl]butan-2-yl}phenyl)pyrimidin-2-amine] | 19 nM | 410 nM |
| CN(C)C(=O)Cn1cc(-c2nc(C(C)(c3ccc(-c4cnc(N)c(C(F)(F)F)c4)cc3)C3CC3)no2)cn1 (centres unmarked) [Example 246, 2-[4-(3-{1-[4-(6-Amino-5-trifluoromethyl-pyridin-3-yl)-phenyl]-1-cyclopropyl-ethyl}-[1,2,4]oxadiazol-5-yl)-pyrazol-1-yl]-N,N-dimethyl-acetamide] | 19 nM | 430 nM |
| Cn1cc(-c2nc([C@@](C)(c3ccc(-c4cnc(N)cn4)cc3)C3CC3)no2)cn1 [Example 184, 5-(4-{(R)-1-Cyclopropyl-1-[5-(1-methyl-1H-pyrazol-4-yl)-[1,2,4]oxadiazol-3-yl]-ethyl}-phenyl)-pyrazin-2-ylamine] | 2 nM | 23 nM |
| CC(C)C(C)(c1ccc(-c2cnc(N)nc2)cc1)c1noc(-c2cncc3ccccc23)n1 (centres unmarked) [Example 127, 5-(4-{2-[5-(isoquinolin-4-yl)-1,2,4-oxadiazol-3-yl]-3-methylbutan-2-yl}phenyl)pyrimidin-2-amine] | 2.9 nM | 650 nM |
| CC(C)C(C)(c1ccc(-c2cnc(N)nc2)cc1)c1noc(-c2cnn(CC(=O)N(C)C)c2)n1 (centres unmarked) [Example 106, 2-[4-(3-{2-[4-(2-aminopyrimidin-5-yl)phenyl]-3-methylbutan-2-yl}-1,2,4-oxadiazol-5-yl)-1H-pyrazol-1-yl]-N,N-dimethylacetamide] | 4.8 nM | 76 nM |
| CNC(=O)Cn1cc(-c2nc(C(C)(C)c3ccc(-c4cnc(N)nc4)cc3)no2)cn1 [Example 79, 2-[4-(3-{2-[4-(2-aminopyrimidin-5-yl)phenyl]propan-2-yl}-1,2,4-oxadiazol-5-yl)-1H-pyrazol-1-yl]-N-methylacetamide] | 150 nM | 2200 nM |
